Reference: patent US20040171688A1, “Carboxylic acids and derivatives thereof and pharmaceutical compositions containing them” (priority 1997, published 2004)

How the values were obtained:
[1] = dietary fatty acid; cited from earlier work
HNF-4α = target: T1, HNF-4α (Rattus norvegicus, UniProt P22449); experiment: Transfection assay: COS-7 cells cotransfected with (C3P)3-TK-CAT reporter and pSG5-HNF-4α; assay type: cell-based; design: expressed in transfected cells; host or cells: COS-7; conditions: free fatty acids added to culture medium of COS-7 cells (FIG. 4a)
T1 sequence (P22449 1-464 isoform P22449-2): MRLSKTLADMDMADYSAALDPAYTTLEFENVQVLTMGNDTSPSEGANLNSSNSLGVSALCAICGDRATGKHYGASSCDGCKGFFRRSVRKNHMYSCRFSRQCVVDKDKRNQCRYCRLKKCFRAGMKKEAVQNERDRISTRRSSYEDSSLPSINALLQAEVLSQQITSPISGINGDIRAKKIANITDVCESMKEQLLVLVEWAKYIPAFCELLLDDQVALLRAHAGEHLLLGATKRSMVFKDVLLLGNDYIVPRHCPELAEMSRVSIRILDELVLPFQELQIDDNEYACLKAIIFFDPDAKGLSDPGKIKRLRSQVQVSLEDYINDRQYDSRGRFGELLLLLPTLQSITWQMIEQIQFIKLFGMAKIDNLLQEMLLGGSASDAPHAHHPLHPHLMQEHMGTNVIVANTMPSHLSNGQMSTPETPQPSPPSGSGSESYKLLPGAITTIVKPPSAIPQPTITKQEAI
Experimental: a. […] Fold induction of CAT activity by transfected HNF-4I is determined by evaluating CAT activity in the presence of pSG5-HNF-4I as compared with pSG5 plasmid and as function of respective fatty acids added to the culture medium as indicated. The figure summarizes 3-4 independent experiments for each fatty acid. Mean ± S.E.
b. […] Fold induction refers to CAT activity in cells incubated with 3,3,12,12-tetramethyl-tetradecanedioic acid (∘), 3,3,14,14-tetramethyl-hexadecanedioic acid (□) and 3,3,16,16-tetramethyl-octadecanedioic acid (Δ) proligands normalized to the activity in cells incubated in the absence of added proligands.
COS-7 cells cotransfected for 6 h with the (C3P)3-TK-CAT reporter plasmid (5 μg) and with either the pSG5-HNF-4α expression plasmid ([…]) or the pSG5 plasmid (0.025 μg) added by calcium phosphate precipitation were cultured in serum free medium with fatty acids (complexed with albumin in a molar ratio of 6:1) added as indicated. β-Galactosidase expression vector pRSGAL (1 μg) added to each precipitate served as an internal control for transfection. The (C3P)3-TK-CAT construct was prepared by inserting a synthetic oligonucleotide encompassing the (−87/−66) Apo CIII promoter sequence (5′-[…]-3′) flanked by HindIII restriction site into pBLCAT2^47 upstream of the −105 bp thymidine kinase promoter. The construct containing three copies of the synthetic oligonucleotide in the direct orientation was selected and confirmed by sequencing.
The intracellular effect of HNF-4α ligands on HNF-4α mediated transcription was evaluated in COS-7 cells cotransfected with an expression vector for HNF-4α and with a CAT reporter plasmid driven by a thymidine kinase promoter and enhanced by one to three C3P copies of the apo CIII gene promoter. Transfected cells were incubated in the presence of free fatty acids and xenobiotic amphipathic carboxylates representing agonistic or antagonistic HNF-4α proligands.

[2] = dietary fatty acid; cited from earlier work; remark: listed apart in the source

effect on HNF-4α dependent transcription (CAT activity) (HNF-4α)	Compound	plasma VLDL-, LDL- and HDL-cholesterol [1]	factor VII content and blood coagulability [2]	blood lipids [1]
dose dependent activation	CCCCCCCCCCCCCC(=O)O [myristic(14:0), myristic(14:0) acid]	increase	–	–
suppressive	CCCCCCCCCCCCCCCCCC(=O)O [stearic(18:0), stearic(18:0) acid]	–	decrease	lowering
